Assay results published in publication PMC10552892, “Ebselen oxide and derivatives are new allosteric HER2 inhibitors for HER2‐positive cancers” (Molecular Oncology, 2023).

How the values were obtained:
BT474 [1] = assay: Incucyte proliferation, single agents and combinations, BT474; type: cell-based; details: Homo sapiens, BT-474, 96 h; read-out: Reduction/inhibition of cell proliferation
Protocol: (A–C) Proliferation curves of HER2‐positive (SKBR3, A; BT474, B; NCI‐N87, C) cancer cell lines treated or not with ebselen oxide (10 μM), lapatinib (10–1000 nM), or combination of these agents, as indicated. Proliferation was assessed overtime by Incucyte during 4 days. Data are mean ± SD (n = 8–12) of a representative experiment out of 4 (A), 3 (B), or 2 (C) independent experiments. […] Proliferation was assessed by Incucyte during 4 days. […] Scale bars are […].

[2] = target: T1, HER2 (pY1248) in MDA-MB-231 (Homo sapiens, UniProt P04626); assay: HER2 activation in MDA-MB-231 cells, western/dot blot; type: cell-based; details: MDA-MB-231, low HER2 expression
T1 construct: host or cells: MDA-MB-231
T1 sequence (P04626 23-1255): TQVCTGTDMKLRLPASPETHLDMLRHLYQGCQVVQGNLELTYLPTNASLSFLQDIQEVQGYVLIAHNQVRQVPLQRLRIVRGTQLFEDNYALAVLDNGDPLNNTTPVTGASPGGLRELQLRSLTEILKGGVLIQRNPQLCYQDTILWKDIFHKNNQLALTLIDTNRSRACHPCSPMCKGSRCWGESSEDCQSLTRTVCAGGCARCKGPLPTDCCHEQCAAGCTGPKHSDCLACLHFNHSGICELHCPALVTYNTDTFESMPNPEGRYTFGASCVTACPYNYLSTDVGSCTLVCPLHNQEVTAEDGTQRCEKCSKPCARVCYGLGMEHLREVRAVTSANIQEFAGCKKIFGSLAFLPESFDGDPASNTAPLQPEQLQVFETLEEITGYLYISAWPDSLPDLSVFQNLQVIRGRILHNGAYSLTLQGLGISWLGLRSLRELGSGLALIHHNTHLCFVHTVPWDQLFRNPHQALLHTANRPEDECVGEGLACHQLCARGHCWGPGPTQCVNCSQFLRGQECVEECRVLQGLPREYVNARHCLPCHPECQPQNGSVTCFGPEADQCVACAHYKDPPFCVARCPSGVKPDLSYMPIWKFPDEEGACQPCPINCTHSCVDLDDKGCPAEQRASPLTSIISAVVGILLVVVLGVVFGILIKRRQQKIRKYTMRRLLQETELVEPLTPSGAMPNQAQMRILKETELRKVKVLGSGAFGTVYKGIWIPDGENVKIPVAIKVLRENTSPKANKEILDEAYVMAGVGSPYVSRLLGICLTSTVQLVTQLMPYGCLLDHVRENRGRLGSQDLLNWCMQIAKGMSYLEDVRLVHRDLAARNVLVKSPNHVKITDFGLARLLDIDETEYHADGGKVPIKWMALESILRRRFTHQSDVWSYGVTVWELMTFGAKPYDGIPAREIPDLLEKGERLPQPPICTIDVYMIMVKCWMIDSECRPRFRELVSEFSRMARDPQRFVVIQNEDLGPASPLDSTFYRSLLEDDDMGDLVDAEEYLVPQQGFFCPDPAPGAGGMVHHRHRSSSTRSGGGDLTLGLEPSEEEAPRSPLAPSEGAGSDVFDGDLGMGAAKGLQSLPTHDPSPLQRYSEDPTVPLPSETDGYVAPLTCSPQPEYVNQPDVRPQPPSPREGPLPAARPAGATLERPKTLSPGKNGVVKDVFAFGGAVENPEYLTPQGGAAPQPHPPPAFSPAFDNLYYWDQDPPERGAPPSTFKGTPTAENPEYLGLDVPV

gD-HER2-WT = target: T2, gD-HER2-WT (Homo sapiens, UniProt P04626); assay: Western blot of HBMECs overexpressing gD-HER2-WT; type: cell-based; details: 5 μM, 24 h
T2 construct: expressed in transfected cells; host or cells: HBMEC (human bone marrow endothelial cells)
T2 sequence (P04626 23-1255): as above
Protocol: Human bone marrow endothelial cells (HBMECs) kindly provided by Dr. B. Weksler (Weill Medical College of Cornell University, NY) were cultured as described previously. The human breast cancer cell lines [SKBR3 (RRID:CVCL_0033), BT474 (RRID:CVCL_0179), and MDA‐MB‐231 (RRID:CVCL_0062)], the human gastric [NCI‐87 (RRID:CVCL_1603)] and ovarian [SKOV3 (RRID:CVCL_0532)] cancer cell lines were obtained from the American Type Culture Collection (Manassas, VA) and were maintained in DMEM containing 10% FBS. All cell lines were cultured under 5% CO2 at 37 °C. HBMECs were transfected using Amaxa Inc nucleofector system (Kit V and U015 program). FBS was decreased to 1% to analyze HER2 activation status and HER2‐dependent cell proliferation in SKOV3 as previously described. Periodic tests for Mycoplasma and authentication were performed using commercially available kits.

NCI-N87 = assay: Anchorage-independent growth (spheroid assay, ULA plates), NCI-N87; type: cell-based, human; details: ebselen oxide 10 μM, lapatinib 10 nM, trastuzumab 10 μg·mL−1, alone or combined
Protocol: 5.10^3 cells/24‐well were seeded in a complete medium in ULA plates (Corning® Costar® (Corning, NY, USA) C LS3473‐24EA) in the presence of indicated compounds. Spheroids were imaged 6–8 days later with a phase‐contrast microscope, and their areas were measured using IMAGEJ software.
Proliferation was assessed overtime by Incucyte during 4 days. Data are mean ± SD (n = 8–12) of a representative experiment out of 4 (A), 3 (B), or 2 (C) independent experiments. One‐way ANOVA followed by Sidak multiple comparison test, (*, compared with Vehicle; ° and #, respectively, compared with lapatinib 10 and 1000 nM) ***P < 0.001, ****P < 0.0001. […] Proliferation was assessed by Incucyte during 4 days. Data are mean ± SD (n = 8–12) of a representative experiment out of two independent experiments. […] Images of a representative experiment out of 3 (G) or 4 (H) independent experiments and quantification of the colony total area are shown where data are mean ± SEM. One‐way ANOVA followed by multiple comparison test, *P < 0.05, **P < 0.01. Scale bars are 100 μM.

BT474 [3] = assay: Soft agar anchorage-independent growth, BT474; type: cell-based, human; details: 10 μM
Protocol: (§1) A bottom layer of 0.8% agarose in DMEM supplemented with 20% FBS and penicillin/streptomycin was added to 24‐well plates before seeding 25.10^3 cells per well in a 0.6% agarose top layer. Cells were treated with a vehicle or with 10 μM ebselen oxide or derivatives. Treatments were renewed 3 times a week. After 6 weeks, colonies were visualized with a phase‐contrast microscope and their number and size were quantified using IMAGEJ software.
(§2) Fig. 2 Ebselen oxide inhibits HER2 activation, cell proliferation, and anchorage‐independent growth of HER2^+ breast cancer cells. […] Blot and quantification of a representative experiment are shown out of 4 (A), 5 (B), or 2 (C) independent experiments. (D–F) Proliferation curves of HER2‐positive (SKBR3, D or BT474, E) or HER2‐negative (MDA‐MB‐231, F) breast cancer cell lines treated with vehicle or 10 μM ebselen oxide assessed by MTT assay. […] (G–I) Anchorage‐independent growth of SKBR3 (G), BT474 (H), or MDA‐MB‐231 (I) cells treated with vehicle or 10 μM ebselen oxide. […] Scale bars are […].

MDA-MB-231 = assay: MTT proliferation assay, MDA-MB-231; type: cell-based, human; details: 10 μM
Protocol: as §2

SKBR3 = assay: Soft agar anchorage-independent growth, SKBR3; type: cell-based, human; details: 10 μM
Protocol: as §1, §2

p95HER2 = p95HER2 (Homo sapiens, UniProt P04626); assay: Activation of gD-tagged p95HER2 in HBMECs, western blot; details: 5–10 μM, 24 h
p95HER2, sequence (P04626 611-1255 limits assumed): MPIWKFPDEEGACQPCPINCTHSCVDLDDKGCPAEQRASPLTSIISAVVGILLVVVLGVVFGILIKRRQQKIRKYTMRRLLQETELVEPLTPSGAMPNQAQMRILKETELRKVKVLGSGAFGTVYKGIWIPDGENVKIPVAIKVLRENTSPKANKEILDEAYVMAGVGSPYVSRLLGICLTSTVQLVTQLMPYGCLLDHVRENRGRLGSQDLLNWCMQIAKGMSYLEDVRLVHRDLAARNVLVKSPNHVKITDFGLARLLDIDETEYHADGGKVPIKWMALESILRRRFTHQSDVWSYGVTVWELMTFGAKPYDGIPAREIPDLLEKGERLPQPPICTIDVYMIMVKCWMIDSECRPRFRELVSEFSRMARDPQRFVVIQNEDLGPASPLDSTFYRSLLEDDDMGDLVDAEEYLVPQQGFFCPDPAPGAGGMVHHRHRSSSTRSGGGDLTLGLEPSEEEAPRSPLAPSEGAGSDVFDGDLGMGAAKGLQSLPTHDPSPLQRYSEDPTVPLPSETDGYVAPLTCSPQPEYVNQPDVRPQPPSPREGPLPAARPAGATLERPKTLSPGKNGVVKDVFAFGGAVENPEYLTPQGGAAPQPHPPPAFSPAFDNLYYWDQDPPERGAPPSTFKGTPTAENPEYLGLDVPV
Protocol: Cells were washed with cold PBS and lysed in a buffer containing 1% Triton, 50 mM Tris–HCl pH 8.8, 25 mM NaCl, 1 mM EDTA, 1 mM Na3VO4, 1 mM AEBSF, 10 μg·mL^−1 each of aprotinin/leupeptin/pepstatin or lysed in Laemmli buffer. Proteins were separated by SDS/PAGE and transferred to nitrocellulose (Schleicher & Schuell, Keene, NH, USA). Membranes were blocked for 1 h in TBS/0.1% Tween20/3% BSA and probed overnight with indicated antibodies. Peroxidase‐coupled secondary antibodies were used to reveal antibody binding using the ECL substrate (Pierce, Thermo Fisher Scientific, Waltham, MA, USA) and Fusion FX (Vilber Lourmat, Collégien, France) chemoluminescence acquisition system. Quantifications were done with IMAGEJ software (1.53e) (NIH, USA).
Vector encoding wild‐type glycoprotein D‐tagged form of HER2 (gD‐HER2‐WT) [18] was a kind gift of Dr M. Sliwkowski (Genentech, San Francisco, CA, USA). […] Vector encoding the HER2p95 [19] was provided by Dr J. Baselga.
(A–C) Lysates were then analyzed by western blot using antibodies against pY1248 HER2 and HER2. Representative blot and data quantification (mean ± SEM) are shown out of 3 (A), 3 (B), or 4 (C) independent experiments. One‐way ANOVA followed by Dunnett's multiple comparison test, *P < 0.05, **P < 0.01, ***P < 0.001.

[4] = target: T3, JMHER2 (peptide derived from the cytosolic juxtamembrane sequence of HER2) (Homo sapiens, UniProt P04626); assay: Surface plasmon resonance binding to immobilized HER2 juxtamembrane peptide; details: analyte 5 or 10 μM, 60 s injection
T3 construct: purchased Proteogenix
Protocol: Interaction was performed on a BIAcore T200 instrument BIAcore (Cytiva Life Sciences, Marlborough, MA, USA); GE Healthcare (Little Chalfont, UK). […] Ebselen or ebselen oxide was used as an analyte and injected at 5 or 10 μM at a flow rate of 25 μL·min^−1 for 60 s.

[5] = test system: HBMECs overexpressing V842I HER2; assay: Proliferation of HBMECs overexpressing V842I HER2 (Incucyte, MTT)
Protocol: Cell medium was removed and replaced with fresh culture medium. 3‐(4,5‐dimethylthiazol‐2‐yl)‐2,5‐diphenyltetrazolium bromide (MTT reagent) was added at a final concentration of 1.2 mM for 2–4 h at 37 °C. Produced formazan was solubilized with DMSO and measured by 540 nm absorbance reading.
25.10^3 cells/96‐well transfected HBMECs or 9.10^3 cancer cells were seeded and monitored with an Incucyte S3 imaging system (Sartorius, Goettingen, Germany) using 10× objective every 2 h during 5 days. Confluency analyses were performed using the dedicated Incucyte analysis system.
(D–F) Proliferation was assessed by Incucyte during 5 days. Data are mean ± SEM of a representative experiment out of two independent experiments. Two‐way ANOVA followed by Bonferroni's multiple comparison test, ***P < 0.001, ****P < 0.0001.
(A-B) HBMECs transfected with empty vector (pRK5) or vectors encoding gD-HER2 WT, the truncated gD-
Proliferation was assessed by Incucyte during 5 days.
Representative quantification of the proliferation (B) is shown where data are mean ± sem (n=8-12).
ANOVA followed byBonferroni’s multiple comparison test, *** P<0.001, **** P<0.0001.
vehicle, 5-10 µM Ebselen oxide or 5 µM AG1478. Proliferation was assessed by MTT assay during 3 days.
Data are mean ± sem (n=3). Two-way ANOVA followed by Bonferroni’s multiple comparison test, * P<0.05 **

How did the inhibition at 10 µM (BT474 [1]) turn out when `O=C1c2ccccc2[Se](=O)N1c1ccccc1` (stereo not drawn) [Ebselen oxide, ebselen oxide] was run?
The inhibition at 10 µM was 30%.

And the “Effect on HER2 activation” value [2]?
Its value is “no effect”.

And the “Reduction of phosphorylation level of gD-HER2-WT” value (gD-HER2-WT; HBMEC)?
Its value is 40%.

What about the “Reduction in the activation of ERK protein kinase” value (gD-HER2-WT; HBMEC gD-HER2-WT) of the same compound?
The value was 65%.

What about the “Reduction of anchorage-independent growth (spheroid assay)” value (NCI-N87) of the same compound?
The value was 23%.

And the “Reduction in the size of micro-colonies” value (BT474 [3])?
Its value is over 50%.

What about the “Effect on proliferation rate” value (MDA-MB-231) of the same compound?
Its value is “did not reduce”.

And the “Reduction in the size of micro-colonies” value (SKBR3)?
Its value is “more than 40%”.

What about the “Inhibition of p95HER2 activation” value (p95HER2) of the same compound?
The value was “strongly inhibited”.

What about the “Direct binding to JMHER2 (SPR)” value [4] of the same compound?
Its value is “directly bind”.

What about the “Inhibition of cell proliferation induced by overexpression of V842I HER2” value ([5]; 5 μM, Incucyte 5 days) of the same compound?
The value was “almost totally inhibited”.

What about the “Inhibition of proliferation compared with AG1478 (5 μM)” value ([5]; MTT 3 days, V842I) of the same compound?
The value was “similar”.
